# Reference: publication PMC9929129, “Towards Translation of PqsR Inverse Agonists: From In Vitro Efficacy Optimization to In Vivo Proof‐of‐Principle” (Advanced Science, 2023)
# Experiments:
# CYP3A4 = target: T1, CYP3A4 (Homo sapiens, UniProt P08684); assay: Cytochrome P450 inhibition assay, CYP3A4; format: in vitro ADME
# T1 construct: Cyprotex
# Description: (§1) 1.4.4 Pharmacokinetic and off-target functional assays (Cyprotex)
# (§2) Compound 24 was assayed at Cyprotex in functional assays for interference with important off-targets as well as important pharmacokinetic parameters. With the exception of plasma protein binding, a dose-response relationship was studied in order to calculate IC50 values.
# (§3) Table S10. Information on in vitro ADMET assays performed at Cyprotex. […]
# (§4) An increase in the number of colonies of at least two-fold over baseline (mean + SD of the vehicle control) and a dose response indicate a positive response. An […]
# (§5) different from the vehicle control.
# (§6) Where indicated, S9 fraction from the livers of Aroclor 1254-treated rats were included in the incubation at a final concentration of 4.5%. A NADPH-regenerating system was also included to ensure a steady supply of reducing equivalents.
# [1] = Plasma protein binding, murine (equilibrium dialysis); format: in vitro ADME, mouse
# Description: as §1, §2, §3
# Plasma protein binding assay (human and Equilibrium dialysis […]
# as §4, §5, §6
# [2] = target: T2, IK (KCa3.1) calcium-activated potassium channel (Homo sapiens, UniProt O15554); assay: Ion channel profiling at Charles River: IK; format: cell-based; details: expressed in CHO cells; read-out: ESTIMATED IC50
# T2 construct: host or cells: CHO cells
# Description: (§7) 1.4.3 Ion Channel Profiling at Charles River
# (§8) Table S9. Compound 24 was tested against the following ion channels at Charles River Laboratories. […]
# FASTPatch Assay IK (KCa3.1) calcium-activated potassium channel (human KCNN4 >30 gene) expressed in CHO cells […]
# (§9) FLIPR Assay expressed in HEK293 cells
# GABAA α5/β3/γ2 ionotropic receptor (human GABRA5, GABRB3, >30 and GABRG2 genes, expressed in HEK293 cells
# hERG = target: T3, hERG (Homo sapiens, UniProt Q12809); assay: hERG safety, single cell electrophysiology; format: cell-based; details: read-out: hERG inhibition IC50
# T3 construct: Cyprotex
# T3 sequence (Q12809 whole entry): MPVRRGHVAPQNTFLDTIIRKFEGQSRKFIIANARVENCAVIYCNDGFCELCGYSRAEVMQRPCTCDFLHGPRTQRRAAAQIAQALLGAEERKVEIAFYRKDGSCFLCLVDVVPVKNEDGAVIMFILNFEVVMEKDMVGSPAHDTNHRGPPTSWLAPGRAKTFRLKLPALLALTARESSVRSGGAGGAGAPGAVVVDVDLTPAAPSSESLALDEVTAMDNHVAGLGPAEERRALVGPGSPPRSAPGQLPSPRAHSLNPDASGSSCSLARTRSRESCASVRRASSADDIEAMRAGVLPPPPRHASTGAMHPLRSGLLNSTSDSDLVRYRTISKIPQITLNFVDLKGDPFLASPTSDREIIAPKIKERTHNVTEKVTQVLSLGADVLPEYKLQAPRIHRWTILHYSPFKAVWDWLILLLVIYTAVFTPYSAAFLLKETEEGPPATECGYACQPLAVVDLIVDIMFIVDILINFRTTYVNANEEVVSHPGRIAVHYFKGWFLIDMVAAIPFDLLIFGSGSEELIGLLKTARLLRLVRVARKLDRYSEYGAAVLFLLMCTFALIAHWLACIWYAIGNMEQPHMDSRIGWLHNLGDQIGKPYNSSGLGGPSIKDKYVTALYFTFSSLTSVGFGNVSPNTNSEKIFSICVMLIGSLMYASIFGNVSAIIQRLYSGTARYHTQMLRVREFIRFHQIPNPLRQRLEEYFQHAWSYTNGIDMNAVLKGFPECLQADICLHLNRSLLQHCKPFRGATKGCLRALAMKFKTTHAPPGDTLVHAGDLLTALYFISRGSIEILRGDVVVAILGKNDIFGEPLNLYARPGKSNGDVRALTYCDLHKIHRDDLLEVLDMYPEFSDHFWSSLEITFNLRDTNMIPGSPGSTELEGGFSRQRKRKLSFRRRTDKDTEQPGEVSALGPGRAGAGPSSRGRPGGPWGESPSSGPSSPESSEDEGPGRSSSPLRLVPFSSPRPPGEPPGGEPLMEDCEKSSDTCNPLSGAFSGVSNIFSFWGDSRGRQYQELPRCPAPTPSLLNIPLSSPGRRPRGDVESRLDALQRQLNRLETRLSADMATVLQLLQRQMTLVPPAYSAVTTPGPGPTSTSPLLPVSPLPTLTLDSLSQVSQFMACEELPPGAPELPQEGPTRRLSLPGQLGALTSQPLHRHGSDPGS
# Description: as §1, §2, §3, §4, §5, §6
# [3] = target: T4, Nav1.5 human sodium ion channel (Homo sapiens, UniProt Q14524); assay: Nav1.5 automated patch clamp CiPA assay (Eurofins); format: cell-based
# T4 construct: Eurofins CYL8004QP2DR
# T4 sequence (Q14524 whole entry): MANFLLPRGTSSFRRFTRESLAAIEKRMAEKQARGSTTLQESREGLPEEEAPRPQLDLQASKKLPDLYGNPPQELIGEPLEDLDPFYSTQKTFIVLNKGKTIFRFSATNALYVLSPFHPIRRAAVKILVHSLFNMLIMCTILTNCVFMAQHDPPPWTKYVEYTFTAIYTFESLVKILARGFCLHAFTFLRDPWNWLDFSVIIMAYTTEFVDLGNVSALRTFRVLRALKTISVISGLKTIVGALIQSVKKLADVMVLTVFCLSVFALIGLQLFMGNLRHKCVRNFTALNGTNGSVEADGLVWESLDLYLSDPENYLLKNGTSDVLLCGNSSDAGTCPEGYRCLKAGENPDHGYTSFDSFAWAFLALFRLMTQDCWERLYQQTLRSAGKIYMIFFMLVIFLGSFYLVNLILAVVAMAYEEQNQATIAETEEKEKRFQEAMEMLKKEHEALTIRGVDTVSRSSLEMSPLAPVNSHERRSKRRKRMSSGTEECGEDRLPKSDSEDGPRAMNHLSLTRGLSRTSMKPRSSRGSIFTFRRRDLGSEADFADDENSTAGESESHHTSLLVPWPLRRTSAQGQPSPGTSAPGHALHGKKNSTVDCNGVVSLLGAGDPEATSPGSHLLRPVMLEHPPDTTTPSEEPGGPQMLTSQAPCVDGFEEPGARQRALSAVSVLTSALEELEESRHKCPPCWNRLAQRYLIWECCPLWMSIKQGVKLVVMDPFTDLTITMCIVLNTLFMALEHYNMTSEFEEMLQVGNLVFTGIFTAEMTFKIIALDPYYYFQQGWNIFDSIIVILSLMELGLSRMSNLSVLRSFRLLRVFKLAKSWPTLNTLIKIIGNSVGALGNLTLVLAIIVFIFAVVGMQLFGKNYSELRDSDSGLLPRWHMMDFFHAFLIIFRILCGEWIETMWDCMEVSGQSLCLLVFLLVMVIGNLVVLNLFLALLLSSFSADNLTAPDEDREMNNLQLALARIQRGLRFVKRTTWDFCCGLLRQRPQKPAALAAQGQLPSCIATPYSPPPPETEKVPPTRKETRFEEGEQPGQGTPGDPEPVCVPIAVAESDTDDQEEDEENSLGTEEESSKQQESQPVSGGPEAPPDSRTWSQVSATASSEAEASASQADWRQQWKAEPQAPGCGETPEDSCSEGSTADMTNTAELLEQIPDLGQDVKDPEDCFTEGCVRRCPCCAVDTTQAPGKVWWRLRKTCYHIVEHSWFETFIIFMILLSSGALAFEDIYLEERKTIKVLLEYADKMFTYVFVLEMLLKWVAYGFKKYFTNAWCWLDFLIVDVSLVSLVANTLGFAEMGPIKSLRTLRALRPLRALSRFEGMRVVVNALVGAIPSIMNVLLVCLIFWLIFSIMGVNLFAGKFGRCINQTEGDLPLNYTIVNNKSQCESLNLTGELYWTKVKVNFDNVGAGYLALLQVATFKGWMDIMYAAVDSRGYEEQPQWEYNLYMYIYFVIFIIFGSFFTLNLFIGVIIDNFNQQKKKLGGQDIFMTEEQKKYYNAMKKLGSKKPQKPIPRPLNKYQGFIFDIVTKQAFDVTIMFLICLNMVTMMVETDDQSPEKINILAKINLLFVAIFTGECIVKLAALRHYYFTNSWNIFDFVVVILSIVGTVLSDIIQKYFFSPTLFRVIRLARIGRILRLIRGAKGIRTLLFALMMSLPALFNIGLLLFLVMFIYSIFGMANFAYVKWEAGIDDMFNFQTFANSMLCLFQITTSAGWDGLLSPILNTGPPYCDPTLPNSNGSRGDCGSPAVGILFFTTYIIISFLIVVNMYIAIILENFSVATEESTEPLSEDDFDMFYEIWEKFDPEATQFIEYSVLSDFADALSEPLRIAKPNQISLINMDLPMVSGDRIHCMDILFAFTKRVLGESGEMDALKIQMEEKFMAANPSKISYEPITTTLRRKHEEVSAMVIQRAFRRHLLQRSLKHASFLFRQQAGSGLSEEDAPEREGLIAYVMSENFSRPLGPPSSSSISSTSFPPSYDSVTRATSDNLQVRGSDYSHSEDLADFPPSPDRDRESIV
# Description: 1.4.2 Further functional off-target assays (Eurofins)
# Table S8. Compound 24 was further tested in the following functional assays at Eurofins.
# ASSAY NAME ESTIMATED IC50 [µM] […]
# Nav1.5 human sodium ion channel cell based automated patch clamp >30 µM
# CiPA assay (CYL8004QP2DR) […]
# as §9
# (§10) GABAA α5/β3/γ2 ionotropic receptor (human GABRA5, GABRB3, >30
# (§11) and GABRG2 genes, expressed in HEK293 cells
# PA14 biofilm = assay: eDNA release assay; format: cell-based; details: Pseudomonas aeruginosa; PA14, propidium iodine staining
# Description: The eDNA release assay was performed as described previously[3] with slight modifications. The impact on eDNA was assessed by incubation of biofilm with propidium iodine solution (0.025 mg mL−1) for 3 h and detection of specific florescence at 620 nm after a thorough washing step with […]
# 1.2.7 P. aeruginosa clinical isolates from bronchiectasis patients – phenotypic characterization and inhibition of pyocyanin production
# Clinical isolates. The P. aeruginosa strains had been isolated from respiratory secretions collected from patients with bronchiectasis seen at the bronchiectasis out-patient clinic of Hannover Medical School. The clinical isolates were genotyped by a custom-made multilocus microarray.[4] The hexadecimal SNP genotype was converted into the multilocus sequence genotype (MLST)[5] by comparison with the sequence of the seven selected housekeeping genes in genome sequences of the same clone deposited in our in-house[6] or the International Pseudomonas Genome Database.[7]
# V1a (h) = target: T5, V1a (h) (Homo sapiens, UniProt P37288); assay: Cerep panel binding assay; details: agonist radioligand
# T5 construct: purchased Eurofins Pharma Discovery (Cerep) SafetyScreen44 Panel, ITEM P270
# Description: 1.4 Safety Pharmacology of Compound 24
# 1.4.1 Cerep panel (Eurofins)
# Compound 24 was further profiled for its off-target interactions against a panel of 44 targets. The
# screening was done by Eurofins Pharma Discovery within the SafetyScreen44 Panel (Cerep, ITEM
# P270). In all assays binding/functional inhibition was determined at 10 µM.
# Table S6. […]
# V1a (h) (agonist radioligand) 7.6
# [4] = In vivo PK study, intratracheal (IT) and intravenous (IV); details: for Tmax / CL/F / Vd/F / half-life: male, CD1, mouse; for Cl/F_obs / Vz/F_obs: […] IV
# Description: The enzymatic activity of the MLM
# First, a calibration curve was prepared by […]
# lavage fluid (BALF). Caffeine was used as
# The in live part for the IV and IT PK studies were performed at CRO Saretius (UK). Groups of male CD1 […]
# light/dark cycle with free access to food and water. Temperature and humidity were controlled according to U.K. HO regulations. On the day of the study, mice were briefly anesthetized with isoflurane before suspending the mouse by its upper incisors on a board held at an angle of approx.
# 45 degrees. Mice were then dosed intratracheally with the compound (24 or Tob) at the designated does formulated in ethanol/tyloxapol/glycerol/phosphate-buffered saline (PBS) [10:1:5:84] in a 1 mL/kg dosing volume up to a maximum of 30 µL per mouse. A laryngoscope was used to facilitate dosing. Animals were allowed to recover before replacing into their home cages. Terminal blood samples were then taken from groups of 3 mice at each of eight time points post-dose by cardiac puncture under CO2. Blood samples were placed in tubes on ice containing EDTA anticoagulant. After gentle mixing, samples were centrifuged (10,000 rpm x 3 min) and two 50 μL aliquots taken into fresh tubes that were immediately frozen on dry ice. Following blood sample collection, tracheas were exposed and a small incision made. An 18 Gauge plastic tube was then inserted through the incision into the trachea and tied in place. Aliquots of 0.8 mL of sterile saline were then infused into and then withdrawn from the lungs and the collected bronchoalveolar lavage (BALF) sample placed into a tube. This process was repeated two more times, and the samples from each mouse pooled. […]
# frozen by immersion in liquid nitrogen.
# Kv1.3 potassium channel = target: T6, Kv1.3 potassium channel (Homo sapiens, UniProt P22001); assay: Ion channel profiling at Charles River: Kv1.3; format: cell-based; details: expressed in CHO cells; read-out: ESTIMATED IC50
# T6 construct: host or cells: CHO cells
# T6 sequence (P22001 whole entry): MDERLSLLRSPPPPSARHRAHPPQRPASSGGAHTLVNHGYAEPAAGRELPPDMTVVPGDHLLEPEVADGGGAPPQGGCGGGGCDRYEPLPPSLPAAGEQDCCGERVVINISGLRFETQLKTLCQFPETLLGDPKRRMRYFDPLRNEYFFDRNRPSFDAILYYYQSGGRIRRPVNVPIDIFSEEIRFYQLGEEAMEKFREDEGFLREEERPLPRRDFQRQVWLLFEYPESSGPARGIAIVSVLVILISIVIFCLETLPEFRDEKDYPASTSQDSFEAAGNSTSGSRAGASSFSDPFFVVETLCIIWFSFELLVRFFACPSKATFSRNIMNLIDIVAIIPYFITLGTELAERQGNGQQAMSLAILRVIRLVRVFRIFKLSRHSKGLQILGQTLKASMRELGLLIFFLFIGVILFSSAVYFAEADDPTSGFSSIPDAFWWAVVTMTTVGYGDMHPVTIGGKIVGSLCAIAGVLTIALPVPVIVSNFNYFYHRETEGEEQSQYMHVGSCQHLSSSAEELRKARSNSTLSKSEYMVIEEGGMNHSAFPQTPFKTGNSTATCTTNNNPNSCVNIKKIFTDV
# Description: as §7
# Table S9. Compound 24 was tested against the following ion channels at Charles River Laboratories.
# ASSAY TYPE ION CHANNEL AND EXPRESSION SYSTEM ESTIMATED […]
# ScreenPatch Assay Kv1.3 potassium channel (human KCNA3 gene) expressed in CHO […]
# as §9, §10, §11
# TRPV1 channel = target: T7, TRPV1 channel (Homo sapiens, UniProt Q8NER1); assay: Ion channel profiling at Charles River: TRPV1; format: cell-based; details: expressed in HEK293 cells; read-out: ESTIMATED IC50
# T7 construct: host or cells: HEK293 cells
# T7 sequence (Q8NER1 whole entry): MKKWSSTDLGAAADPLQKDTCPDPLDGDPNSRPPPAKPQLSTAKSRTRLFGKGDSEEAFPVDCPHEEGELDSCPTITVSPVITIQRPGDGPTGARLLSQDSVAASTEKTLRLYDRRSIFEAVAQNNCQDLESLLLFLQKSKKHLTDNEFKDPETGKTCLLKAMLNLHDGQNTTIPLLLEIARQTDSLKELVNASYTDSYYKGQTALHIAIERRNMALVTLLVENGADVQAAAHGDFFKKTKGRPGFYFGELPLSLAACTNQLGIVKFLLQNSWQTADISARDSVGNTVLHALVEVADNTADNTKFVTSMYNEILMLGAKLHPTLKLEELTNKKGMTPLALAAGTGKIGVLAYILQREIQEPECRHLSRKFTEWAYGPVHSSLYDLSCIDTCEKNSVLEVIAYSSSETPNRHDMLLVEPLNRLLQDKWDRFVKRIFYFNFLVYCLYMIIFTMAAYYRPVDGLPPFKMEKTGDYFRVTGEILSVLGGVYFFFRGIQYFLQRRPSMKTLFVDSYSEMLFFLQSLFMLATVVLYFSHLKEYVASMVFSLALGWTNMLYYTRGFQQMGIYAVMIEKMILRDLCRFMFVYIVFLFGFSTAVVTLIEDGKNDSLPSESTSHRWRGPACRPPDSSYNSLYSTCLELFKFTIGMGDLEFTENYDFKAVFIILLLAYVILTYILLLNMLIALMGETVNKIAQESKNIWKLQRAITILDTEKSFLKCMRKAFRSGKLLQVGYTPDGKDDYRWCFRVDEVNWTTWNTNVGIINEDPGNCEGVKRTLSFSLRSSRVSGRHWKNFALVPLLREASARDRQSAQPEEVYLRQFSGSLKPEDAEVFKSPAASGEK
# Description: as §7, §8, §9
# GABAA α5/β3/γ2 ionotropic receptor (human GABRA5, GABRB3, >30 and GABRG2 genes, expressed in HEK293 cells […]
# TRPV1 channel (human TRPV1 gene) expressed in HEK293 cells >30 […]
# as §4, §5, §6
# [5] = epithelial lining fluid, iv, ELF Tmax
# T1 sequence (P08684 whole entry): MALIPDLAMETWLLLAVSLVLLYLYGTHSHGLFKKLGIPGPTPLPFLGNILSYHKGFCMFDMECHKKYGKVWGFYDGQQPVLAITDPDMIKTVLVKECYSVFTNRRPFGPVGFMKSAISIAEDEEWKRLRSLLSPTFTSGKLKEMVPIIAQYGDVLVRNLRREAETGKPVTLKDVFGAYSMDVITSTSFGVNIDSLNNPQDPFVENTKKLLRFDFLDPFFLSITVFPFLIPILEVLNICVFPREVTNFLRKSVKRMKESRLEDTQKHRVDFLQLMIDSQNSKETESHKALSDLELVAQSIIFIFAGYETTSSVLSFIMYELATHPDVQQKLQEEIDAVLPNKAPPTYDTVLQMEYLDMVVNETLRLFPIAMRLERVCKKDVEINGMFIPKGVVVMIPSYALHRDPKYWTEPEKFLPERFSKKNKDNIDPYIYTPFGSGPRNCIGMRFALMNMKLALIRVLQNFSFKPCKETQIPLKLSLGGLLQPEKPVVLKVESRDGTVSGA
structure (smiles),measurement,setting,value
CC(C)Oc1ccc(-c2ncc(CNc3ccnc(C(F)(F)F)c3)cn2)cc1Cl [Compound 24],IC50,"CYP3A4; Metabolic activity, activation observed",> 25 µM
same,CYP3A4 activation,CYP3A4; at 10 × 10^−6 M,> 50%
same,Plasma binding murine,[1],>99%
same,IC50,[2],> 30 µM
same,IC50,hERG,15.8 µM
same,IC50,[3],> 30 µM
same,IC50,PA14 biofilm,0.346 µM
same,inhibition at 10 µM,V1a (h),7.6%
same,Tmax,[4]; [5],40.2 ± 54 min
same,CL/F,"[4]; in vivo, inhaled or intranasal",0.8 ± 0.1 mL/min/kg
same,Vd/F,"[4]; in vivo, inhaled or intranasal",0.06 L/kg
same,half-life,"[4]; in vivo, inhaled or intranasal",48.6 min
same,Tmax,"[4]; in vivo, inhaled or intranasal, ELF Tmax",30 min
same,Tmax,"[4]; in vivo, inhaled or intranasal, Lung Tmax",40.2 ± 18 min
same,Tmax,"[4]; in vivo, inhaled or intranasal, Tmax",40.2 ± 18 min
same,Tmax,"[4]; lung tissue, iv, Lung Tmax",4.8 min
same,half-life,"[4]; plasma, iv",63 ± 6 min
same,Cl/F_obs,[4]; plasma,0.21 ± 0.0 mL/min/kg
same,Vz/F_obs,[4]; plasma,0.02 ± 0.0 L/kg
same,IC50,Kv1.3 potassium channel,> 30 µM
same,IC50,TRPV1 channel,> 30 µM
"NC[C@H]1O[C@H](O[C@H]2[C@H](O)[C@@H](O[C@H]3O[C@H](CO)[C@@H](O)[C@H](N)[C@H]3O)[C@H](N)C[C@@H]2N)[C@H](N)C[C@@H]1O [Tobramycin, tobramycin]",Tmax,"[4]; epithelial lining fluid, inhaled or intranasal, ELF Tmax, […] IT",40.2 ± 18 min
same,Tmax,[4]; [5],8.4 ± 6 min
same,Tmax,"[4]; lung, inhaled or intranasal, Lung Tmax, lung tissue, […] IT",49.8 ± 18 min
same,CL/F,"[4]; plasma, inhaled or intranasal",15.2 ± 8 mL/min/kg
same,Vd/F,"[4]; plasma, inhaled or intranasal",1.02 ± 0.4 L/kg
same,half-life,"[4]; plasma, inhaled or intranasal",48.6 ± 12 min
same,Tmax,"[4]; plasma, inhaled or intranasal, Tmax, […] IT",40.2 ± 18 min
same,half-life,"[4]; plasma, iv",15 ± 6 min
same,Cl/F_obs,[4]; plasma,27.99 ± 1.8 mL/min/kg
same,Vz/F_obs,[4]; plasma,0.60 ± 0.2 L/kg
